Test results as given in EP0326329B1, “Quinazoline derivatives useful as insecticides” (Dow AgroSciences LLC, priority 1988, dated 1989).

Columns and labels:
Type in all cases: in vivo
[1] = system: melon aphids (Aphis gossypii Glover); assay: Mite/insect screen, sprayed squash cotyledons (MA); conditions: percent mortality; for mortality at 200 ppm / mortality at 400 ppm: Aphis gossypii, read-out: MA RESULTS %; for mortality at 400 ppm: spray rate 400 ppm
Description: (§1) The compounds of Examples 1-203 were tested for miticidal and insecticidal activity in the following mite/insect screen.
(§2) Each test compound was formulated by dissolving the compound in acetone/alcohol (50:50) mixture containing 23 g of "TOXIMUL R" (sulfonate/nonionic emulsifier blend) and 13 g of "TOXIMUL S" (sulfonate/nonionic emulsifier blend) per liter. These mixtures were then diluted with water to give the indicated concentrations.
(§3) Other plants in the same treatment pot were left uninfested. The leaves were then sprayed with 5 ml of test solution using a DeVilbiss atomizing sprayer at 10 psi. Both surfaces of the leaves were covered until runoff, and then allowed to dry for one hour. Two uninfested leaves were then excised and placed into a Petri dish containing larval southern armyworm (Spodopetra eridania Cramer).
(§4) After standard exposure periods, percent mortality and phytotoxicity were evaluated. […]

[2] = system: Pseudoperonospora cubensis (downy mildew); assay: Greenhouse Test 1, foliar spray fungicide screen (DOWN MDEW), host squash; conditions: disease control rating, 400 ppm (+++ at 100 ppm)
[3] = system: Pyricularia oryzae (rice blast); conditions: disease control rating, foliar spray, host rice; 400 ppm (+++ at 100 ppm)
[4] = system: Erysiphe graminis tritici (powdery mildew); assay: Greenhouse Test 1, foliar spray fungicide screen (POWD MDEW), host wheat; conditions: disease control rating, 400 ppm (+++ at 100 ppm)
[5] = system: Botrytis cinerea (gray mold); assay: Greenhouse Test 1, foliar spray fungicide screen (GRAY MOLD), host grape berries; conditions: disease control rating, 400 ppm (+++ at 100 ppm)
[6] = system: Southern corn rootworm (Diabrotica undecimpuctata howardi Barber); assay: Mite/insect screen, soil treatment (CRW); conditions: percent mortality; for mortality at 12 ppm / mortality at 24 ppm: Diabrotica, read-out: CRW RESULTS %; for mortality at 24 ppm: CRW rate 24.00 ppm
Description: as §1, §2
Activity on Southern corn rootworm (Diabrotica undecimpuctata howardi Barber) was evaluated by adding two ml of tap water, a presoaked corn seed, and 15 g of dry sandy soil to a one ounce plastic container. The soil was treated with 1 mL of test solution containing a pre-determined concentration of test compound. After six to 12 hours of drying, five 2-3 instar corn rootworm larvae were added to the individual cups, which were then capped and held at 23°C.
as §4

[7] = system: southern armyworm (Spodopetra eridania Cramer); assay: Mite/insect screen, sprayed squash leaves (SAW); conditions: percent mortality; for mortality at 200 ppm / mortality at 400 ppm: Spodoptera eridania, read-out: SAW RESULTS %; for mortality at 400 ppm: spray rate 400 ppm
Description: as §1, §2, §3, §4

[8] = system: Puccinia recondita tritici (leaf rust); assay: Greenhouse Test 1, foliar spray fungicide screen (LEAF RUST), host wheat; conditions: disease control rating, 400 ppm (+++ at 100 ppm)
[9] = system: Twospotted spider mites (Tetranychus urticae Koch); assay: Mite/insect screen, sprayed squash cotyledons (SM); conditions: percent mortality; for mortality at 200 ppm / mortality at 400 ppm: Tetranychus urticae, read-out: SM RESULTS %; for mortality at 400 ppm: spray rate 400 ppm
Description: as §1, §2, §3, §4

[10] = soil treatment, CRW rate 12.00 ppm

Compound	mortality at 200 ppm ([1]; spray rate 200 ppm) [%]	mortality at 400 ppm [1] [%]	DOWN MDEW [2]	RICE BLAST [3]	POWD MDEW [4]	GRAY MOLD [5]	mortality at 12 ppm [6, 10] [%]	mortality at 24 ppm ([6]; soil treatment) [%]	mortality at 200 ppm ([7]; spray rate 200 ppm) [%]	mortality at 400 ppm [7] [%]	LEAF RUST [8]	mortality at 200 ppm ([9]; spray rate 200 ppm) [%]	mortality at 400 ppm [9] [%]	further results
Clc1ccc2ncnc(NCCc3ccccc3Oc3ccccc3)c2c1 [Example 57, 6-chloro-N-[2-(2-phenoxyphenyl)ethyl]-4-quinazolinamine]	0	0	- (- = 0-19% control at 400 ppm)	- (- = 0-19% control at 400 ppm)	- (- = 0-19% control at 400 ppm)	- (- = 0-19% control at 400 ppm)	0	0	80	0	- (- = 0-19% control at 400 ppm)	0	0	MA RESULTS % ([1]; spray rate 200 ppm): 0%; CRW RESULTS % [6, 10]: 0%; SAW RESULTS % ([7]; spray rate 200 ppm): 100%; SM RESULTS % ([9]; spray rate 200 ppm): 0%
CC(COc1ncnc2ccccc12)c1cccc(Oc2ccccc2)c1 (centres unmarked) [Example 182, 4-[2-(3-phenoxyphenyl)propoxy]quinazoline]	80	100	- (- = 0-19% control at 400 ppm)	- (- = 0-19% control at 400 ppm)	++ (++ = 90-100% control at 400 ppm)	- (- = 0-19% control at 400 ppm)	0	0	0	0	++ (++ = 90-100% control at 400 ppm)	0	80	–
Fc1ccc(CCOc2ncnc3c(F)cccc23)c(F)c1 [Example 159, 8-fluoro-4-[2-(2,4-difluorophenyl)ethoxy]quinazoline]	80	100	+++ (+++ = 90-100% control at 100 ppm)	+++ (+++ = 90-100% control at 100 ppm)	+++ (+++ = 90-100% control at 100 ppm)	- (- = 0-19% control at 400 ppm)	0	0	0	0	+++ (+++ = 90-100% control at 100 ppm)	90	80	–
Fc1cccc2c(OCCCc3ccc(Oc4ccccc4)cc3)ncnc12 [Example 119, 8-fluoro-4-[3-(4-phenoxyphenyl)propoxy]quinazoline]	80	0	- (- = 0-19% control at 400 ppm)	++ (++ = 90-100% control at 400 ppm)	+ (+ = 20-89% control at 400 ppm)	- (- = 0-19% control at 400 ppm)	0	0	0	90	+ (+ = 20-89% control at 400 ppm)	50	0	–
CC(C)(C)c1ccc(CCOc2ncnc3ccc(Cl)cc23)cc1 [Example 174, 6-chloro-4-[2-[4-(t-butyl)phenyl]ethoxy]quinazoline]	0	0	++ (++ = 90-100% control at 400 ppm)	++ (++ = 90-100% control at 400 ppm)	+ (+ = 20-89% control at 400 ppm)	- (- = 0-19% control at 400 ppm)	0	100	0	0	- (- = 0-19% control at 400 ppm)	80	40	–
Brc1ccc2ncnc(NCCc3ccc(Oc4ccccc4)cc3)c2c1 [Example 177, 6-bromo-N-[2-(4-phenoxyphenyl)ethyl]-4-quinazolinamine]	80	50	+++ (+++ = 90-100% control at 100 ppm)	+++ (+++ = 90-100% control at 100 ppm)	- (- = 0-19% control at 400 ppm)	+ (+ = 20-89% control at 400 ppm)	0	0	0	0	+++ (+++ = 90-100% control at 100 ppm)	0	50	–
c1ccc(Oc2ccc(CCOc3ncnc4ccccc34)cc2)cc1 [Example 69, 4-[2-(4-phenoxyphenyl)ethoxy]quinazoline]	–	0	+++ (+++ = 90-100% control at 100 ppm)	+++ (+++ = 90-100% control at 100 ppm)	+++ (+++ = 90-100% control at 100 ppm)	- (- = 0-19% control at 400 ppm)	–	0	–	100	+++ (+++ = 90-100% control at 100 ppm)	–	100	–
CC(C)(C)c1ccc(CCCNc2ncnc3ccc(Cl)cc23)cc1 [Example 140, 6-chloro-N-(3-[4-(1,1-dimethylethyl)phenyl]propyl]-4-quinazoline]	0	0	++ (++ = 90-100% control at 400 ppm)	++ (++ = 90-100% control at 400 ppm)	+ (+ = 20-89% control at 400 ppm)	- (- = 0-19% control at 400 ppm)	0	0	0	0	+ (+ = 20-89% control at 400 ppm)	0	80	–
CCOc1ccc(CCCOc2ncnc3c(F)cccc23)cc1 [Example 125, 8-fluoro-4-[3-[4-ethoxyphenyl]propoxy]quinazoline]	0	0	+ (+ = 20-89% control at 400 ppm)	+ (+ = 20-89% control at 400 ppm)	+ (+ = 20-89% control at 400 ppm)	- (- = 0-19% control at 400 ppm)	0	0	0	0	+ (+ = 20-89% control at 400 ppm)	0	0	–
C=CC(CCc1ccccc1)Oc1ncnc2ccccc12 (centres unmarked) [Example 148, 4-[(1-benzyl-3-buten-2-yl)oxy]quinazoline]	–	0	++ (++ = 90-100% control at 400 ppm)	++ (++ = 90-100% control at 400 ppm)	++ (++ = 90-100% control at 400 ppm)	- (- = 0-19% control at 400 ppm)	–	0	–	0	+ (+ = 20-89% control at 400 ppm)	–	0	–
c1ccc(Oc2ccc(CCNc3ncnc4ccccc34)cc2)cc1 [Example 104, N-[2-(4-phenoxyphenyl)ethyl]-4-quinazolinamine]	–	0	+++ (+++ = 90-100% control at 100 ppm)	+++ (+++ = 90-100% control at 100 ppm)	+++ (+++ = 90-100% control at 100 ppm)	- (- = 0-19% control at 400 ppm)	–	100	–	100	+++ (+++ = 90-100% control at 100 ppm)	–	0	MA RESULTS % ([1]; rate not given): 100%; CRW RESULTS % ([6]; rate not given): 0%; SAW RESULTS % ([7]; rate not given): 0%; SM RESULTS % ([9]; rate not given): 100%
FC(F)(F)c1cccc(C(F)(F)F)c1CCOc1ncnc2ccccc12 [Example 145, 4-[2-[2,6-bis(trifluoromethyl)phenyl]ethoxy]quinazoline]	80	80	++ (++ = 90-100% control at 400 ppm)	+++ (+++ = 90-100% control at 100 ppm)	+ (+ = 20-89% control at 400 ppm)	- (- = 0-19% control at 400 ppm)	0	0	0	0	+ (+ = 20-89% control at 400 ppm)	80	0	–
